Test system: mosses and lichens
Test: Anti-moss and anti-lichen effect of glycerol-based compositions, overall observation on mosses and lichens
Assay type: in vivo
Text: An anti-moss and/or anti-lichen composition is first prepared by solubilizing the required amount of glycerol in water at room temperature, in an appropriate vessel, to give a solution containing 99%, 65% or 20% by weight of glycerol.
The anti-moss and/or anti-lichen composition is maintained at this same temperature in a vessel fitted with a nozzle to enable the product to be sprayed onto a vertical or horizontal surface.
A sufficient amount of anti-moss and/or anti-lichen composition containing 99%, 65% or 20% by weight of glycerol, with or without gluconic acid, is applied by the process of the invention to 3 different surfaces covered with crustaceous lichens, gelatinous lichens and mosses.
For the series of 3 treatments, visual observations were made periodically after treatment with the glycerol compositions described, and then at regular intervals for 3 weeks.

Compound: OCC(O)CO [Pure glycerol, glycerol]
- anti-moss and/or anti-lichen activity on dilution (glycerol diluted to 20%): without losing its anti-moss and/or anti-lichen activity
- efficacy for removing mosses and/or lichens (pure glycerol): effective

From patent US20080085833A1, “Use Of Glycerol As An Anti-Moss And/Or Anti-Lichen Agent” (priority 2004, published 2008)
